Data: ChEMBL document CHEMBL1143855, “(2S,2'R)-analogue of LG190178 is a major active isomer” (Bioorg Med Chem Lett, 2008)

Molecular target: T1, Vitamin D3 receptor (Homo sapiens) (UniProt P11473)
T1 sequence (whole entry): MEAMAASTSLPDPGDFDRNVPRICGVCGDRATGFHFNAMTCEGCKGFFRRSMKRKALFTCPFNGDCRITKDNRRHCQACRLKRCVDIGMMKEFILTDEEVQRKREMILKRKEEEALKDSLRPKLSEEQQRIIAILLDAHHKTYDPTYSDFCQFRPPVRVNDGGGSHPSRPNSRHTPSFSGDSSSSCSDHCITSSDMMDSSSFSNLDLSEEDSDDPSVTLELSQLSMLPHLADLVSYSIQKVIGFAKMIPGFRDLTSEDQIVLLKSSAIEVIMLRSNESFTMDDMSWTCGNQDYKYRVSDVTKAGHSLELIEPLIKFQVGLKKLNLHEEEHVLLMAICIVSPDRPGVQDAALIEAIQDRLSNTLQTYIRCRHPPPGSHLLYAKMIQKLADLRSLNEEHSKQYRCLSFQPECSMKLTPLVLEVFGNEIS
Assay: Binding affinity to VDR relative to (1-alpha 25-(OH)2D3

Q: How did the Activity turn out when `CCC(CC)(c1ccc(OC[C@@H](O)CO)c(C)c1)c1ccc(OC[C@@H](O)C(C)(C)C)c(C)c1` was run?
A: 0.831

Q: For `CCC(CC)(c1ccc(OC[C@H](O)CO)c(C)c1)c1ccc(OC[C@H](O)C(C)(C)C)c(C)c1`, which Activity is on record?
A: 0.482

Q: Which Activity does the source give for `CCC(CC)(c1ccc(OC[C@@H](O)CO)c(C)c1)c1ccc(OC[C@H](O)C(C)(C)C)c(C)c1` here?
A: 28.3

Q: For `CCC(CC)(c1ccc(OC[C@H](O)CO)c(C)c1)c1ccc(OC[C@@H](O)C(C)(C)C)c(C)c1`, which Activity is on record?
A: 0.112
